Data: US6369057B1, “Quinoxalines, processes for their preparation and their use” (Aventis Pharma Deutschland GmbH, priority 1991, dated 2002)
In brackets after ≈: the same amount, converted by molar mass.

How the values were obtained:
HIV = experiment: Test of preparations against HIV in cell culture (T-cell culture assay); format: cell-based; conditions: lowest concentration where no giant cells were observed, HIV-infected lymphocytes from donor blood, 3 days at 37° C.; for MIC: Human immunodeficiency virus 1, 72 h
Description: Test of Preparations Against HIV in Cell Culture
Complete medium additionally contains 20% fetal calf serum and 40 IU/ml recombinant interleukin 2.
Lymphocytes which have been isolated from fresh donor blood by means of Ficoll gradient centrifugation are cultured for 36 hours in complete medium with an addition of 2 μg/ml phytohemagglutinin (Wellcome) at 37° C. under 5% of CO2. After 10% of DMSO has been added, the cells are frozen at a density of 5 [formula]10^6 and stored in liquid nitrogen. For the test, the cells are defrosted, washed in RPMI medium and cultured for 3-4 days in the complete medium.
The test preparations were dissolved in DMSO at a concentration of 16.7 mg/ml and diluted in complete medium to 1 mg/ml.
0.4 ml of medium was introduced into 24-multiwell dishes. 0.1 ml of the dissolved preparation was added to the upper row of the dish, and, by transferring 0.1 ml portions, a geometric dilution series was established. Controls without preparation always contained 0.4 ml of complete medium containing 0.5% of DMSO. Lymphocyte cultures with a cell density of 5 [formula]10^5 cells/ml were infected by adding 1/50 volume supernatant from HIV-infected lymphocyte cultures. The titer of these culture supernatants was determined by end-point titration as 1-5 [formula]10^6 infectious units/ml. After 30 minutes' incubation at 37° C., the infected lymphocytes were removed by centrifugation and taken up in an equal volume of medium. From this cell suspension, 0.6 ml aliquots were transferred into all wells of the test plate. The mixtures were incubated for 3 days at 37° C.
The infected cell cultures were examined under the microscope for the presence of giant cells, which indicate active virus multiplication in the culture. The lowest concentration of preparation where no giant cells were observed was determined as inhibitory concentration against HIV. As a control, the supernatants from the culture plates were tested for the presence of HIV antigen with the aid of an HIV antigen test following the manufacturer's instructions (Organon).

[1] = target: T1, HIV reverse transcriptase (RT) (Human immunodeficiency virus type 1 group M subtype B, UniProt P03366); experiment: Assay for HIV reverse transcriptase inhibition (scintillation proximity assay); format: biochemical; conditions: for Reverse Transcriptase Assay IC50: RT from HIV cloned in E. coli, SPA, 60 minutes (37° C.)
T1 construct: The enzyme RT (from HIV cloned in E. coli); purchased HT-Biotechnology Ltd, Cambridge, UK; host or cells: E. coli
Description: Assay of the Substances for HIV Reverse Transcriptase Inhibition
The activity of reverse transcriptase (RT) was determined with the aid of a scintillation proximity assay (SPA).
The reagent kit for the RT-SPA was obtained from Amersham/Buchler (Braunschweig).
The enzyme RT (from HIV cloned in E. coli) originated from HT-Biotechnology Ltd, Cambridge, UK.
The assay was carried out using the manufacturer's (Amersham) protocol manual, with the following modifications: bovine serum albumin was added to the assay buffer to give an end concentration of 0.5 mg/ml the assay was carried out in Eppendorf reaction vessels, using 100 μl volume per batch the manufacturer's RT concentrate (5000 U/ml) was diluted in Tris-HCl buffer 20 mM; pH 7.2; 30% of glycerol, to an activity of 15 U per ml the incubation time for the mixtures was 60 minutes (37° C.) after stopping the reaction and “developing” with the bead suspension, 130 μl of mixture were transferred to 4.5 ml of Tris-HCl buffer, 10 mM; pH 7.4; 0.15 M NaCl, and the tritium activity was measured by means of a [formula]-counter.
For a pre-assay for inhibitory activity, the substances were dissolved in DMSO (stock solution c=1 mg/ml), and tested as a 10^−1, 10^−2, 10^−3, etc., dilution in DMSO.
To determine IC50 values, the inhibitor stock solutions were diluted further in Tris-HCl buffer, 50 mM, pH 8, and tested in suitable concentrations.
The concentration corresponding to a 50% enzyme inhibition was determined from a plot of RT activity versus log Clnh.

SMILES	T-cell culture assay MIC (HIV) [µg/mL]	Reverse Transcriptase Assay IC50 [1]	other results
CC(C)=CCN1c2ccccc2NC(=S)C1C (racemic) [Example 7-1, (3RS)-3-Methyl-4-N-(3-methyl-2-buten-1-yl)-3,4-dihydroquinoxaline-2(1H)-thione]	–	–	MIC (HIV): < 0.16 µg/mL; IC50 [1]: 325 nM
CC(C)=CCN1c2cc(Cl)ccc2NC(=O)C1C (racemic) [VI-C, (3RS)-6-Chloro-3-methyl-4-N-(3-methyl-2-buten-1-yI)-3,4-dihydroquinoxalin-2(1H)-one]	<0.8	0.8 µg/mL	–
CC1C(=O)Nc2ccc(Cl)cc2N1Cc1ccccc1 (centres unmarked) [Example 3-21]	0.16	–	–
CC(C)COC(=O)N1c2cc(Cl)ccc2NC(=O)C1C (centres unmarked) [Example 3-26]	0.4	–	–
C=C(C)OC(=O)N1c2cc(OCCOC)ccc2NC(=O)C1CC (centres unmarked) [Example 3-33]	0.4	–	–
C=C(C)OC(=O)N1c2cc(Cl)ccc2NC(=O)C1CCC (centres unmarked) [Example 3-34]	–	0.1 to 1 µg/mL	–
C=CCOC(=O)N1c2cc(Cl)ccc2NC(=O)C1CCC (centres unmarked) [Example 3-35]	–	0.1 to 1 µg/mL	–
C=C(C)OC(=O)N1c2cc(Cl)ccc2NC(=O)C1C(C)C (centres unmarked) [Example 3-37]	–	0.1 to 1 µg/mL	–
C=C(C)OC(=O)N1c2cc(Cl)ccc2NC(=O)C1CCSC (centres unmarked) [Example 3-44]	<0.8	–	–
C=CCOC(=O)N1c2cc(Cl)ccc2NC(=O)C1CC(C)C (centres unmarked) [Example 3-48]	<0.8	–	–
CC(C)=CCN1c2c(Cl)cccc2NC(=O)C1C (centres unmarked) [Example 3-52]	>0.8	–	–
CC(C)=CCN1c2ccc(Cl)cc2NC(=O)C1C (centres unmarked) [Example 3-53]	>0.8	–	–
C=C(C)OC(=O)N1c2ccc(Cl)cc2NC(=O)C1CCSC (centres unmarked) [Example 3-62]	<4.0	–	–
CC(C)=CCN1c2ccc(F)cc2NC(=O)C1C (centres unmarked) [Example 3-64]	>0.8	–	–
C=C(C)OC(=O)N1c2ccc(F)cc2NC(=O)C1C (centres unmarked) [Example 3-66]	>0.08	–	–
CC(C)=CCN1c2cc(F)ccc2NC(=O)C1C (centres unmarked) [Example 3-67]	<0.8	–	–
C=C(C)OC(=O)N1c2ccc(Oc3ccccc3)cc2NC(=O)C1C (centres unmarked) [Example 3-73]	>0.4	–	–
C=CCOC(=O)N1c2cc(Cl)ccc2NC(=O)C1C(C)CC (centres unmarked) [Example 3-80]	0.4	–	–
CCCCC(=O)N1c2cc(Cl)ccc2NC(=O)C1C (centres unmarked) [Example 3-87]	>0.8	–	–
CCCC(=O)N1c2cc(Cl)ccc2NC(=O)C1C (centres unmarked) [Example 3-88]	0.8	–	–
CSCC1C(=O)Nc2ccc(Cl)cc2N1C(=O)OC(C)C (centres unmarked) [Example 3-127]	–	0.01 to 0.1 µg/mL	–
C=C(C)OC(=O)N1c2cc(OC)ccc2NC(=O)C1CSC (centres unmarked) [Example 3-128]	–	0.01 to 0.1 µg/mL	–
COc1ccc2c(c1)N(C(=O)OC(C)C)C(CSC)C(=O)N2 (centres unmarked) [Example 3-129]	–	0.01 to 0.1 µg/mL	–

SMILES	T-cell culture assay MIC (HIV) [µg/mL]	Reverse Transcriptase Assay IC50 [1]	other results
C=C(C)OC(=O)N1c2cc(Cl)ccc2NC(=O)C1(C)C [Example 6-8]	–	0.1 to 1 µg/mL	–
C=C(C)OC(=O)N1c2ccc(Cl)cc2NC(=O)C1(C)C [Example 6-9]	–	approx. 1 μg/ml	–
C=CCOC(=O)N1c2cc(Cl)ccc2NC(=S)C1CC (centres unmarked) [Example 7-15]	–	0.01 to 0.1 µg/mL	–
C=C(C)OC(=O)N1c2cc(Cl)ccc2NC(=S)C1CCC (centres unmarked) [Example 7-17]	–	0.01 to 0.1 µg/mL	–
C=CCOC(=O)N1c2cc(Cl)ccc2NC(=S)C1CCC (centres unmarked) [Example 7-18]	–	0.01 to 0.1 µg/mL	–
CC1C(=S)Nc2ccc(Cl)cc2N1Cc1ccccn1 (centres unmarked) [Example 7-19]	–	0.01 to 0.1 µg/mL	–
CC1C(=S)Nc2ccc(Cl)cc2N1Cc1cccnc1 (centres unmarked) [Example 7-20]	–	0.1 to 1 µg/mL	–
CCOC(=O)N1c2cc(Cl)ccc2NC(=S)C1(C)C [Example 7-24]	–	<0.01 µg/mL	–
CCCOC(=O)N1c2cc(Cl)ccc2NC(=S)C1(C)C [Example 7-25]	–	<0.01 µg/mL	–
CCC1C(=S)Nc2ccc(Cl)cc2N1Cc1ccccn1 (centres unmarked) [Example 7-26]	–	0.01 to 0.1 µg/mL	–
CSCC1C(=S)Nc2ccc(Cl)cc2N1C(=O)OC(C)C (centres unmarked) [Example 7-28]	–	<0.01 µg/mL	–
CSCC1C(=S)Nc2ccc(Cl)cc2N1Cc1ccccn1 (centres unmarked) [Example 7-29]	–	0.01 to 0.1 µg/mL	–
C=C(C)OC(=O)N1c2cc(OC)ccc2NC(=S)C1CSC (centres unmarked) [Example 7-30]	–	<0.01 µg/mL	–
COc1ccc2c(c1)N(C(=O)OC(C)C)C(CSC)C(=S)N2 (centres unmarked) [Example 7-31]	–	<0.01 µg/mL	–
CC1C(=O)Nc2ccc(Cl)cc2N1Cc1ccsc1 (centres unmarked) [Example 10-34]	–	0.1 to 1 µg/mL	–
CC1C(=O)Nc2ccc(Cl)cc2N1C(=O)SCc1ccccc1 (centres unmarked) [Example 11-5]	–	0.1 to 1 µg/mL	–
C=CCSC(=O)N1c2cc(Cl)ccc2NC(=O)C1C (centres unmarked) [Example 11-6]	–	0.1 to 1 µg/mL	–
C=C(C)COC(=O)N1c2cc(Cl)ccc2NC(=O)C1C (centres unmarked) [Example 11-7]	–	approx. 1 μg/ml	–
CSCCOC(=O)N1c2cc(Cl)ccc2NC(=O)C1C (centres unmarked) [Example 11-13]	–	approx. 1 μg/ml	–
C[C@H]1C(=O)Nc2ccc(Cl)cc2N1C(=O)OCc1ccccc1 [Example III, (3S)-4-N-(Benzyloxycarbonyl)-6-chloro-3-methyl-3,4-di-hydroquinoxalin-2(1H)-one]	–	–	MIC (HIV): 0.8 µg/mL (≈ 2.42 µM)
CC(C)=CCN1c2ccccc2NC(=O)C1(C)C [Example XX, 3,3-Dimethyl-4-N-(3-methyl-2-buten-1-yl)-3,4-dihydroquinoxalin-2(1H)-one]	–	–	MIC (HIV): < 4 µg/mL
CC(C)=CCN1c2cc(Cl)ccc2NC(=O)[C@H]1C [VI-B, (3R)-6-Chloro-3-methyl-4-N-(3-methyl-2-buten-1-yl)-3,4-dihydroquinoxalin-2(1H)-one]	–	–	MIC (HIV): 20 µg/mL (≈ 75.5 µM)

Now from value to compound, other results behind:

T-cell culture assay MIC (HIV) [µg/mL]	SMILES	Reverse Transcriptase Assay IC50 [1]	other results
<0.8	CCC1(CC)C(=O)Nc2cc(C)ccc2N1CC=C(C)C [Example 6-20]	–	–
>0.8	CC(C)=CCN1c2ccc(F)cc2NC(=O)C1(C)C [Example 6-22]	–	–
<0.08	C=C(C)OC(=O)N1c2ccc(F)cc2NC(=O)C1(C)C [Example 6-32]	–	–
>0.8	C=C(C)OC(=O)N1c2ccc(OCC)cc2NC(=O)C1(C)C [Example 6-33]	–	–
<0.8	C=C(C)OC(=O)N1c2cc(C)c(C)cc2NC(=O)C1(C)C [Example 6-36]	–	–
0.4	C=C(C)OC(=O)N1c2ccc(Oc3ccccc3)cc2NC(=O)C1(C)C [Example 6-39]	–	–
0.4	CC1C(=O)Nc2ccc(Cl)cc2N1C1CCC1 (centres unmarked) [Example 10-4]	–	–
<0.8	CC(C)CCN1c2cc(Cl)ccc2NC(=O)C1C (centres unmarked) [Example 10-5]	–	–
<0.8	CC1C(=O)Nc2ccc(Cl)cc2N1Cc1ccc(Br)cc1 (centres unmarked) [Example 10-14]	–	–
<0.8	CC=CCOC(=O)N1c2cc(Cl)ccc2NC(=O)C1C (centres unmarked) [Example 11-1]	–	–
<0.8	C#CCOC(=O)N1c2cc(Cl)ccc2NC(=O)C1C (centres unmarked) [Example 11-3]	–	–
0.8	CC#CCOC(=O)N1c2cc(Cl)ccc2NC(=O)C1C (centres unmarked) [Example 11-4]	–	–
